From US20120196324A1, “Method for Producing an Antifungal Peptide in a Filamentous Fungal Host Cell” (NOVOZYMES A/S, priority 2007, published 2012)

Tests used:
Aspergillus oryzae BECh2 = assay: Tolerance to ETD151: growth in YCM with ETD151; assay type: cell-based; details: YCM with different amounts of ETD151 (maximum 5815 mg/L), 6 days
Protocol: (§1) Selected strains were subjected to YCM with 0-5815 mg/L ETD151 for 6 days in order to test tolerance to ETD151.
(§2) To test the tolerance to ETD151, ToC1512, BECh2 and the 7 gcs^− mutants were grown in YCM with different amounts of ETD151 (maximum 5815 mg/L). […] One of the gcs^− mutants (no. 18) was hereafter selected and named PtSL1.

[1] = test system: Aspergillus oryzae ToC1512; assay: Tolerance to ETD151: growth in YCM with ETD151; assay type: cell-based; details: YCM with different amounts of ETD151 (maximum 5815 mg/L), 6 days
Protocol: as §1, §2

[2] = test system: gcs- mutants of A. oryzae ToC1512; assay: Tolerance to ETD151: growth in YCM with ETD151; assay type: cell-based, Aspergillus oryzae; details: high concentrations of ETD151 (maximum 5815 mg/L), 6 days, 7 gcs- mutants
Protocol: as §1, §2

Candida utilis = assay: Bioassay (plate assay, growth inhibition seen as clearing zones); assay type: cell-based; details: ETD151 expressed by BECh2 transformants (pPtSL4); Candida utilis as target organism
Protocol: ETD151 was diluted to 58 μg/ml in peptide dilution buffer (0.1% BSA, 0.01% Acetic Acid) and further on to 6 μg/ml and 0.6 μg/ml and used as control. Candida utilis was grown on YPD plates, A. oryzae on Cove N medium slants. An inoculum of fungal growth was resuspended in 0.1% Tween to an optical density of approx. 1 McFarland Unit. A NUNC-tube with 15 ml ⅓ PD agarose at approx. 42° C. was inoculated with approx. 6×10^6 CFU, mixed thoroughly and poured into a sterile 9 cm square dish (Falcon 351112) on a levelling table and allowed to solidify and set for 30 minutes. Ten μl of each of the peptide dilutions was added to the surface of the plate. The plates were incubated at 30° C. (or 37° C. as appropriate). The next day, growth was detected either by observing the inhibition zones by oblique illumination (or by adding 3 ml of a 3 mM MTT solution and leaving the plate for 1-2 hours at room temperature).
BECh2 was transformed with plasmid pPtSL4 and subjected to amdS medium. amdS resistant colonies were isolated as spores from single sporangies and subjected to amdS medium twice. From 45 BECh2 transformants, 43 were subjected to a Bioassay as described using Candida utilis as target organism and to SDS gel electrophoresis.

[3] = test system: Pichia pastoris gcs-deletion mutants; details: glucosylceramide synthetase deficient Pichia pastoris; cited from earlier work
[4] = test system: Candida albicans gcs-deletion mutants; details: glucosylceramide synthetase deficient Candida albicans; cited from earlier work

Substance | growth of strain in presence of ETD151 (Aspergillus oryzae BECh2) | growth of strain in presence of ETD151 [1] | growth of strain in presence of ETD151 [2] | growth inhibition in plate Bioassay (Candida utilis) | susceptibility of gcs-deletion mutants [3] | susceptibility of gcs-deletion mutants [4]
ETD151: heliomycin derivative, antifungal defensin peptide shown in SEQ ID NO: 7, expressed in Aspergillus oryzae (DKLIGSCVWGAVNYTSNCRAECKRRGYKGGHCGSFANVNCWCET; heliomycin derivative) | grew badly | did not grow at all | grew very well | clearing zones |  | 
RsAFP2: antifungal defensin (QKLCQRPSGTWSGVCGNNNACKNQCIRLEKARHGSCNYVFPAHKCICYFPC; UniProt P30230 30-80, looked up) |  |  |  |  | resistant | resistant
